The values below come from ChEMBL document CHEMBL1144390, “Equipotent activity in both enantiomers of a series of ketopiperazine-based renin inhibitors” (Bioorg Med Chem Lett, 2005).

SMILES strings stand for the structures.

The term IC50 denotes the midpoint of a concentration-inhibition curve.

The experiment deals with T1, Renin (Homo sapiens, UniProt P00797).
T1 sequence (P00797 whole entry): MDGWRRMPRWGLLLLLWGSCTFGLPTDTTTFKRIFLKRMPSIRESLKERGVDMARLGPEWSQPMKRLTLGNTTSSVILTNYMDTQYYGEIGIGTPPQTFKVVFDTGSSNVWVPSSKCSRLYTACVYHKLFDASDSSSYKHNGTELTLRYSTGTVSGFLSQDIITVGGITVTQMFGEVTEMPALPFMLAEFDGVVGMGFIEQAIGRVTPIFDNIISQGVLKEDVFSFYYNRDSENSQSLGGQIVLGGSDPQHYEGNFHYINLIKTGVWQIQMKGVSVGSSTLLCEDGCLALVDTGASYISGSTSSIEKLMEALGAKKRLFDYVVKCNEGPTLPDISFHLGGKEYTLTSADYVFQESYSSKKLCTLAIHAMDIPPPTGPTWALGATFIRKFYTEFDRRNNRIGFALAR
In words: Concentration required to inhibit renin activity by 50%.
Compound `COc1ccccc1COCCCOc1ccc(N2C(=O)CNC[C@H]2COc2ccc3cccnc3c2)cc1` returned an IC50 of 860 nM. In turn, `COc1ccccc1COCCCOc1ccc(N2C(=O)CNC[C@H]2COc2ccc3c(c2)N(CCO)CCC3)cc1` displayed an IC50 of 33 nM. `COCCCN1C(=O)CCc2ccc(OC[C@H]3CNCC(=O)N3c3ccc(OCCCOCc4ccccc4OC)cc3)cc21` returned an IC50 of 7 nM. The same measure for `COc1ccccc1COCCCOc1ccc(N2C(=O)CNC[C@@H]2COc2ccc3c(c2)NCCC3)cc1`: 120 nM.

`COCCCN1C(=O)CCc2ccc(OC[C@@H]3CNCC(=O)N3c3ccc(OCCCOCc4ccccc4OC)cc3)cc21` registered an IC50 of 17 nM. As for `COc1ccccc1COCCCOc1ccc(N2C(=O)CNC[C@H]2COc2ccc3c(c2)NCCC3)cc1`, the IC50 turned out to be 23 nM. Consider `COc1ccccc1COCCCOc1ccc(N2C(=O)CNC[C@H]2COc2ccc3c(c2)N(CCCO)CCC3)cc1`, for which inhibition was half-maximal at 35 nM (IC50).
